Earlier results on 1 substance are cited in patent US8748087B2, “Sequence of reverse transcriptase gene and method of use” (Fudan University, priority 2005, dated 2014).

The series relates to HBV. The conditions noted are these: patients with chronic hepatitis B.

Take interferon alpha: the overall response rates entry was “less than 30%”.
